What all share (assay): kinase panel
Format in all cases: biochemical

Test [1] concerns the target Pim-1(h) (Homo sapiens, UniProt P11309). The source says:
(§1) We profiled three compounds from the series across the kinome (Table S1).
(§2) Ta b l e S1. The % inhibition of compounds 4, 5r [SU1261], and 6g [SU1349] against a
(§3) panel of kinase enzymes. We proϐiled three compounds from the series across 231
(§4) kinases. For SU1349, given its structural similarity with SU1261, we selected 98 from the
(§5) Tested kinase % inhibiƟon

For test [2], the target named is T1, IRAK4(h) (Homo sapiens, UniProt Q9NWZ3).
T1 sequence (Q9NWZ3 1-460): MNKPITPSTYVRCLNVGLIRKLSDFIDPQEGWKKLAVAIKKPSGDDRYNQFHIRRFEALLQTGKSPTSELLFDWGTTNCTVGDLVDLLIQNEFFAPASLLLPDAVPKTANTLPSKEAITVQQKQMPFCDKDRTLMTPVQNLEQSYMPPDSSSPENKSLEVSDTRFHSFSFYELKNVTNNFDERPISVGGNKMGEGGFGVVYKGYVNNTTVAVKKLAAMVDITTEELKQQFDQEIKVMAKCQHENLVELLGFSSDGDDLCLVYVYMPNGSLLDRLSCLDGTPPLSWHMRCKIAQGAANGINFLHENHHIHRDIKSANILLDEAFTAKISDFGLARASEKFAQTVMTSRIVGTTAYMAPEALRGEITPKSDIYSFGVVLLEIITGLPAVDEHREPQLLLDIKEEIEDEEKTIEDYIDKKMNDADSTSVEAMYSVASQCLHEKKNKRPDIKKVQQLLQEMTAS
Text: as §1, §2, §3, §4, §5

The target in test [3] is T2, TAO1(h) (Homo sapiens, UniProt Q7L7X3).
T2 sequence (Q7L7X3 1-1001): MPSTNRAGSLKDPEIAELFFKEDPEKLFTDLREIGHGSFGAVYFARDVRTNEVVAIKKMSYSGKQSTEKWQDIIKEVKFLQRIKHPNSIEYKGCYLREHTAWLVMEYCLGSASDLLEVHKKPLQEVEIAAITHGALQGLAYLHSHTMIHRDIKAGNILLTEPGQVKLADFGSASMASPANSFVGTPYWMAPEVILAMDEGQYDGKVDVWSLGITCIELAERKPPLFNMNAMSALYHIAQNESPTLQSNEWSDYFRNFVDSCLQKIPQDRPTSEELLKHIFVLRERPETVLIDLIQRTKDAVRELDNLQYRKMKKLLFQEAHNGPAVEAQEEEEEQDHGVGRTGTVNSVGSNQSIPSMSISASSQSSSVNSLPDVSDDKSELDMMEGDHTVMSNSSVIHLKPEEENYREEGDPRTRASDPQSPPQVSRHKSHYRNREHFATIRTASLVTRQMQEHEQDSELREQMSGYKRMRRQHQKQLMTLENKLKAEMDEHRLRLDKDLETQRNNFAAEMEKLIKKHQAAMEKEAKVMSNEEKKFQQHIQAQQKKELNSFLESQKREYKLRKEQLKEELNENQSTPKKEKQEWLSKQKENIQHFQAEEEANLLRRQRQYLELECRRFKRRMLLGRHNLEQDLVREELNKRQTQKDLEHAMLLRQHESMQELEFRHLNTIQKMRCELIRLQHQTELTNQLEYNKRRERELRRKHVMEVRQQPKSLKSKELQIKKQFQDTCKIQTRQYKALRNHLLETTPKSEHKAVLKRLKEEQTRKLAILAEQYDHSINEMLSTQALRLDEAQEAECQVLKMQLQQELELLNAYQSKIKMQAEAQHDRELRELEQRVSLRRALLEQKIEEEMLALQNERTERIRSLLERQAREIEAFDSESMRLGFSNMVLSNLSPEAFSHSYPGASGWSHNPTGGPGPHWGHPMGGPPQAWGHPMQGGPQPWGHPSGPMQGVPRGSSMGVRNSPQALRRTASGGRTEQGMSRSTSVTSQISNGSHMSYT
Text: as §1, §2, §3, §4, §5

Test [4] concerns the target ErbB4(h) (Homo sapiens, UniProt Q15303).
Text: as §1, §2, §3, §4, §5

For test [5], the target named is JAK2(h) (Homo sapiens, UniProt O60674).
Chain of JAK2(h) (O60674 whole entry): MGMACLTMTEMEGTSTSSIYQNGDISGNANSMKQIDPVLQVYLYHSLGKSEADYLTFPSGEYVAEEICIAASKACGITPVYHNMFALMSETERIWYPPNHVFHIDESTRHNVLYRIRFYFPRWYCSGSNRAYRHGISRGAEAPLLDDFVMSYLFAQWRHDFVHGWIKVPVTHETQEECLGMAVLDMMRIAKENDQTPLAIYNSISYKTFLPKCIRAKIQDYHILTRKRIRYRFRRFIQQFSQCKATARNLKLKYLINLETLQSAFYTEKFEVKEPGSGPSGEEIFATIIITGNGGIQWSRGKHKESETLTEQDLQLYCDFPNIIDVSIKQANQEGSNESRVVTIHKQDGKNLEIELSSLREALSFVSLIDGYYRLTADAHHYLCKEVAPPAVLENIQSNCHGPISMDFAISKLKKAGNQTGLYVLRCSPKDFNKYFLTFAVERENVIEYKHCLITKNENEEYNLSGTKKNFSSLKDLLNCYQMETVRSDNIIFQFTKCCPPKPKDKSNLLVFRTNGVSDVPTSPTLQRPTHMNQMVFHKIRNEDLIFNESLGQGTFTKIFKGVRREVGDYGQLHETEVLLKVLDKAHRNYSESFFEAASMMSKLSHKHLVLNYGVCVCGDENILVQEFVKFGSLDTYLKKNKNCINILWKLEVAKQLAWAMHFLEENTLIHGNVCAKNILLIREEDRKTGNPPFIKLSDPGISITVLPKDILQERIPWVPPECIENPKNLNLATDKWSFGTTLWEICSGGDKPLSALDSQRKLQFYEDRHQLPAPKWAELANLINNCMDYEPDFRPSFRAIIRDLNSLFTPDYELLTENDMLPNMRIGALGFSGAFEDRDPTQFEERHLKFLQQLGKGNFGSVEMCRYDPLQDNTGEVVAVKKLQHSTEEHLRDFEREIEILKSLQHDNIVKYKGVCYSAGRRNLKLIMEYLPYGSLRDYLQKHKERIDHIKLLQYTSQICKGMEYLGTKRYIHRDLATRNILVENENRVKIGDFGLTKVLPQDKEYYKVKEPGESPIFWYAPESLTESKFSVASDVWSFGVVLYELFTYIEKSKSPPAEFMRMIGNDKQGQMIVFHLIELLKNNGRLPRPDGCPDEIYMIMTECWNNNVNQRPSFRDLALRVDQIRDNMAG
Text: as §1, §2, §3, §4, §5

For test [6], the target named is MAPKAP-K2(h) (Homo sapiens, UniProt P49137).
Chain of MAPKAP-K2(h) (P49137 whole entry): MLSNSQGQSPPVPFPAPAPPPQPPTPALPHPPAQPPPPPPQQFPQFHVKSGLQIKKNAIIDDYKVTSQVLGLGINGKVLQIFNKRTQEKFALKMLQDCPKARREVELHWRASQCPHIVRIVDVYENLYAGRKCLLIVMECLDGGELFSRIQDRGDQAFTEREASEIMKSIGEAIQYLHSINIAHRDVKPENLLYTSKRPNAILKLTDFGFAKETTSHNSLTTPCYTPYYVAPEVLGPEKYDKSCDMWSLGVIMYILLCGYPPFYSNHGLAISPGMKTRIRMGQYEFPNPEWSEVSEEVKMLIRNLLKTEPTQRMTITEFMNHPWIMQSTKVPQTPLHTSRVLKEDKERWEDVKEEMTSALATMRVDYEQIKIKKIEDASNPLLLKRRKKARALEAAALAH
Text: as §1, §2, §3, §4, §5

Test [7] addresses Ret(h) (Homo sapiens, UniProt P07949).
Text: as §1, §2, §3, §4, §5

Test [8] addresses T3, CaMKIV(h) (Homo sapiens, UniProt Q16566).
T3 sequence (Q16566 1-473): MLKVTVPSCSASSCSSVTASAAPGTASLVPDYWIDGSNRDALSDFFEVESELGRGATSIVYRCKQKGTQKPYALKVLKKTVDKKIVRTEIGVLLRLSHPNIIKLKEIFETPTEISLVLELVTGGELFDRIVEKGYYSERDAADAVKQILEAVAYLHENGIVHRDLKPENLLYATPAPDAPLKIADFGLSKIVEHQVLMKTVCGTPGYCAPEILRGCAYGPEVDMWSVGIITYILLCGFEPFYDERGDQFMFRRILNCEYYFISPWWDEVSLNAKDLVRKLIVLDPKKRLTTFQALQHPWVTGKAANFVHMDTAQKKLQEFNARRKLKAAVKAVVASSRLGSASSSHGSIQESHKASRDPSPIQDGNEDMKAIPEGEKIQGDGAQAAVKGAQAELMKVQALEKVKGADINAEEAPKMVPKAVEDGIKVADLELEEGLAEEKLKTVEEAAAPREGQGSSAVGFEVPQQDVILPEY
Text: as §1, §2, §3, §4, §5

For test [9], the target named is T4, Aurora-C(h) (Homo sapiens, UniProt Q9UQB9).
T4 sequence (Q9UQB9 1-309): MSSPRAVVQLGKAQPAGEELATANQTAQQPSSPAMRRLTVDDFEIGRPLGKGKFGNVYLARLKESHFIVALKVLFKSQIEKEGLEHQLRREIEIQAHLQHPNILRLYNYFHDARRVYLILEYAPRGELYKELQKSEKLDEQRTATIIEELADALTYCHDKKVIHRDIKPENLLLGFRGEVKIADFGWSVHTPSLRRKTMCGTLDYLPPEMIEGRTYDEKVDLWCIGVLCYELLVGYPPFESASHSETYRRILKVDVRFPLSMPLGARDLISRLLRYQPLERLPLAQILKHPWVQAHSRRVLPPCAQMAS
Text: as §1, §2, §3, §4, §5

Test [10] addresses Flt4(h) (Homo sapiens, UniProt P35916).
Text: as §1, §2, §3, §4, §5

Test [11] deals with JNK3(h) (Homo sapiens, UniProt P53779).
Chain of JNK3(h) (P53779 whole entry): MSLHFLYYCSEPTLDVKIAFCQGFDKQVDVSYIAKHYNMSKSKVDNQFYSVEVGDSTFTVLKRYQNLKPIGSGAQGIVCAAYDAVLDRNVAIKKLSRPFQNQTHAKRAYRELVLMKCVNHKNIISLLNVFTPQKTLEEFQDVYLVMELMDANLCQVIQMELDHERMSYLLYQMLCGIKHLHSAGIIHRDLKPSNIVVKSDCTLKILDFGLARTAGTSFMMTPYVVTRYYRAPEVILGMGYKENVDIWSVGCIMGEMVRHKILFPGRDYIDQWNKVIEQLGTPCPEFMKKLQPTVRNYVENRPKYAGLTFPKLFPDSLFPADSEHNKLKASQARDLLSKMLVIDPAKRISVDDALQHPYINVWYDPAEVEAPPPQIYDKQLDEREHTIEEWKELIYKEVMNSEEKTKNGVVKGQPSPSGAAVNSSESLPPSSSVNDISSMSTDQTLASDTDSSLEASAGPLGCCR
Text: as §1, §2, §3, §4, §5

Test [12] addresses PKCη(h) (Homo sapiens, UniProt P24723).
Text: as §1, §2, §3, §4, §5

As a reminder, the inhibition is the drop in the measured response relative to a control, in per cent.

Chain of PKCη(h) (P24723 whole entry): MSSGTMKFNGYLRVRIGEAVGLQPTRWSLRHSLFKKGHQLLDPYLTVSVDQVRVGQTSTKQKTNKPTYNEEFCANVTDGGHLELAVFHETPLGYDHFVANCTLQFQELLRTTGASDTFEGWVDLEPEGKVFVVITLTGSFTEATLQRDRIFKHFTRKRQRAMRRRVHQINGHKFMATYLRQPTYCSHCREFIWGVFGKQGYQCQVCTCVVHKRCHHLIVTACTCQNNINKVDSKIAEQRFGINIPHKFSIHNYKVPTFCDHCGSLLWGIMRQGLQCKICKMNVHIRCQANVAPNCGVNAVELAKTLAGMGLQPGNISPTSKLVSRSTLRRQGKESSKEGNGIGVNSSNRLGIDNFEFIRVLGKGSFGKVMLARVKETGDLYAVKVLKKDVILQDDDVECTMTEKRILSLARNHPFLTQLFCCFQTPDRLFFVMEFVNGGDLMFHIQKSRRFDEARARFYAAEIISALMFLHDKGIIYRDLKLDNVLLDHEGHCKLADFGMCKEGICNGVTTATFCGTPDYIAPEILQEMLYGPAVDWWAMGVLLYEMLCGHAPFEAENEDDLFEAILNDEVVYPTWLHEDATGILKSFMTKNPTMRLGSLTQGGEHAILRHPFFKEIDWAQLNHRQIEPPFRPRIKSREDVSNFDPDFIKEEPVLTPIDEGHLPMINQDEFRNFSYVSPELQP
Chain of Flt4(h) (P35916 25-1363): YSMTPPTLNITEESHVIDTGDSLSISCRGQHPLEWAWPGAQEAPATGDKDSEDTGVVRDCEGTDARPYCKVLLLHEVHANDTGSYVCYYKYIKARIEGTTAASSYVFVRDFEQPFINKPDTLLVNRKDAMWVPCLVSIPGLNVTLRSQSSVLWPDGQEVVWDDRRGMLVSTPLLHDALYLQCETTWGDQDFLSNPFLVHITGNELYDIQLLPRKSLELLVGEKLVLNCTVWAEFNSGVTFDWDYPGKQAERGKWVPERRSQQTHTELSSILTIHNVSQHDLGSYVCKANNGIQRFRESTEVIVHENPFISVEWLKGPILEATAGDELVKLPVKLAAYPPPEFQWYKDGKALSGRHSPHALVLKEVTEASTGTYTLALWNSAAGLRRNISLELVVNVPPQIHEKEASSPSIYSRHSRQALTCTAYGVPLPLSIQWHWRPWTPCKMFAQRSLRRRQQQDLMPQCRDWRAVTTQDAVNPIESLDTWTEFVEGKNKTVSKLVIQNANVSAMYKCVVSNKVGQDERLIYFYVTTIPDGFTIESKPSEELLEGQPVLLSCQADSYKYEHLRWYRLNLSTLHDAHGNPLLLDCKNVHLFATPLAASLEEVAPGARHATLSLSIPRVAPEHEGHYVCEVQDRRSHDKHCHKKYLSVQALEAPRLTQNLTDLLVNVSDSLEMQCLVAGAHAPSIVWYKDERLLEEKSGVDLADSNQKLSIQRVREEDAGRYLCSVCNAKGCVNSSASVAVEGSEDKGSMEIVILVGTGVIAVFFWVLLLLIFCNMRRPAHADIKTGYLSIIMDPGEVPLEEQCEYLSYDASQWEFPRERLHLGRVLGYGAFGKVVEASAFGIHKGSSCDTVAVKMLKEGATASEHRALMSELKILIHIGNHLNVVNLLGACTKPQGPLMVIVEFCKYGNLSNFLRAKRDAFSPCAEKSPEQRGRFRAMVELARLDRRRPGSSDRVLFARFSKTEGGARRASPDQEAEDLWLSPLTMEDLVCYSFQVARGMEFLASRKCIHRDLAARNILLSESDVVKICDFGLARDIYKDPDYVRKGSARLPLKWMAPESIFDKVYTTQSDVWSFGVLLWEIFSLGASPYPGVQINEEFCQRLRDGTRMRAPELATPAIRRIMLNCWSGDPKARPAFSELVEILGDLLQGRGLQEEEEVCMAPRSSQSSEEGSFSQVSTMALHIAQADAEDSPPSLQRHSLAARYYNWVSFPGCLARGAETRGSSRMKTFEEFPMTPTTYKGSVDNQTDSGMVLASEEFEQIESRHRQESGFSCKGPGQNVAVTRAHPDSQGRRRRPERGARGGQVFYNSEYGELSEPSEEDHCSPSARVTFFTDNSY
Chain of Ret(h) (P07949 29-1114): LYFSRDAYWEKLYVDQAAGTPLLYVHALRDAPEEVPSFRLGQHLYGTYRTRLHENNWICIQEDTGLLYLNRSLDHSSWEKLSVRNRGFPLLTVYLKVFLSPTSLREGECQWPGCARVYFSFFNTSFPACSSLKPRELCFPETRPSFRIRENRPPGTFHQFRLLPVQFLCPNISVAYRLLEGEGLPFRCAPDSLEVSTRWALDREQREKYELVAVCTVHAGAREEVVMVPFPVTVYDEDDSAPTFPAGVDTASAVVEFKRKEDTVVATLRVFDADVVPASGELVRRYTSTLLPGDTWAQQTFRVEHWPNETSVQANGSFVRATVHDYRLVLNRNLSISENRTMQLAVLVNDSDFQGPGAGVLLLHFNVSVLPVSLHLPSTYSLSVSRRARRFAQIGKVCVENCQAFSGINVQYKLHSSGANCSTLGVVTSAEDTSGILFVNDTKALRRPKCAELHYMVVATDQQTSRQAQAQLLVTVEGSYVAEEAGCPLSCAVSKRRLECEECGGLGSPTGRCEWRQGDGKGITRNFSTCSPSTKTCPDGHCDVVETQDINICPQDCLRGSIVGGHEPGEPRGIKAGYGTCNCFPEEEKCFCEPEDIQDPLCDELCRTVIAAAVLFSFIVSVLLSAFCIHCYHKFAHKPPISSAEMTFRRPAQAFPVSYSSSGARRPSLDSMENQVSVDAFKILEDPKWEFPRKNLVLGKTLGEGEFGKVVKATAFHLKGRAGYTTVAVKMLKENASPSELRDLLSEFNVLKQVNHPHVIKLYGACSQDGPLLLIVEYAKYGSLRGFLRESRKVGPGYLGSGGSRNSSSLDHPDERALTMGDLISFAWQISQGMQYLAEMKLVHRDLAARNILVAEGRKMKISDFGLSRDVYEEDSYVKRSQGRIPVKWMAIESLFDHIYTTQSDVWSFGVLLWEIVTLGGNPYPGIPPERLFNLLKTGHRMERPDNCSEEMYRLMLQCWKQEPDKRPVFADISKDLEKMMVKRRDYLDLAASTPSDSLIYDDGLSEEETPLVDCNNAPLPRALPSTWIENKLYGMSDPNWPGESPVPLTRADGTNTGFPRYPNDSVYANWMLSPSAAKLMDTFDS

Consider `Nc1n[nH]c2ccc(-c3ccnc4[nH]c(-c5ccccc5)cc34)cc12` [Compound 4], for which the inhibition at 1 µM is 23% in test [1]; 25% in test [2]; 73% in test [3]; 20% in test [4]; 88% in test [5]; 38% in [6]. For the same compound, the inhibition at 1 µM in [7] turned out to be 52%; in test [8], 4%; in [9], 90%; in test [10] it was 97%; in test [11], 99%; in [12], 2%.
Consider `Nc1n[nH]c2ccc(-c3ccnc4[nH]c(-c5cccc(OCc6ccccc6)c5)cc34)cc12` [Compound 5r [SU1261]], for which the inhibition at 1 µM in test [1] was -1%; in test [2], 3%; in [3], 16%; in test [4] it was 14%; in test [5], 73%; in test [6], -3%. In addition, the inhibition at 1 µM came to 41% in test [7]; 6% in [8]; 32% in test [9]; 63% in test [10]; 86% in test [11]; 2% in test [12].
With `Nc1n[nH]c2ccc(-c3ccnc4[nH]c(-c5ccnc(OCc6ccccc6)c5)cc34)cc12` [Compound 6g [SU1349]], the inhibition at 1 µM is 8% in test [1]; -8% in test [2]; 5% in [3]; -5% in test [4]; 35% in test [5]; 1% in test [6]. Besides, the inhibition at 1 µM was -3% in test [7]; -9% in [8]; 19% in [9]; 43% in test [10]; 62% in test [11]; -1% in test [12].

Values taken from publication PMC11314561, “Design and Synthesis of Novel Aminoindazole-pyrrolo[2,3-b]pyridine Inhibitors of IKKα That Selectively Perturb Cellular Non-Canonical NF-κB Signalling” (Molecules, 2024).
